Patent publication US20230313146A1, “INTESTINAL EPITHELIAL CELL CULTURES” (ARDELYX, INC., priority 2017, published 2023)

Legend:
Assay type in all cases: cell-based
[1] = test system: human distal colonic cultures; experiment: Seeding media comparison in human distal colonic monolayer cultures (TEER, RNA profile); settings: thiazovivin substituted for Y-27632 in the seeding media (WENRAT)
Protocol: Organoids were typically grown for 7-12 days before being used to plate monolayer cultures. Organoid cultures embedded in Matrigel were broken apart in growth media and pooled in a 15 mL conical tube. The cells were centrifuged at 600×g for 3 minutes and resuspended in TrypLE Express and placed in a water bath at 37° C. for 3 minutes. The cells were then removed and pipetted up and down for 7 minutes. BM was added to quench the reaction, and the cell suspension was centrifuged at 600×g for 3 minutes, resuspended in BM, and counted.
Media conditions used for murine colon growth and differentiation were optimized for human distal colon cultures using the water-absorption phenotype characteristic of this segment. The effects of seeding and differentiation media alterations on human distal colon cultures were determined by comparing two seeding medias (WENRAT or WENRNicAST) and three differentiation medias (WENR, ENRA, and ENR). […] Murine colonic growth media (WENR) was altered by removing Wnt3a (W) to generated ENR media, or by removing Wnt3a (W) and adding A83-01 (A) (ENRA). Removal of Wnt3a and addition of A83-01 was necessary for proper differentiation of water-absorbing cultures (FIG. 9B and FIG. 8). […] However, the inclusion of Nic and SB202190 in the WENRNicAST seeding media further suppressed differentiation of secretory cells in human colonic cultures (FIG. 10). […]

[2] = test system: K^+ absorption in mouse distal colonic cultures; experiment: Mouse distal colon K+ transport screening assay
Protocol: Ion transport was determined by sampling the apical and basolateral chambers of the Transwell and analyzing these samples on an ion chromatography system (Thermo Fisher ICS-3000 or ICS-5000+) coupled with conductivity detectors. Chromatographic separation of cations was performed using an IonPac CS12A (Dionex) 2×250 mm analytical column with an isocratic elution using 25 mM methanesulfonic acid. Chromatographic separation of anions was performed using an IonPac AS18 (Dionex) 2×250 mm analytical column with an isocratic elution using 35 mM potassium hydroxide. Concentrations were calculated relative to a standard curve for each analyte ion based on retention time and peak area.
An assay was established to measure K^+ transport in mouse distal colonic cultures. Mouse distal colonic monolayer cultures were prepared in 96-well Transwells according to protocol and were used for assay on day 6, 7, or 8 depending on the TEER value of the culture and its water-absorption phenotype. Wells with a TEER value below 450 Ω·cm^2 were not used for assay. […]
To start the assay, 80 μL of apical media was added to triplicate wells per compound and 130 μL of basolateral media was added to the basolateral compartment. […] K^+ and rubidium ion concentrations were determined using ion chromatography. […]

[3] = test system: mouse duodenal, jejunal, and ileal cultures; experiment: Differentiation of mouse small intestinal monolayer cultures (global gene expression PCC versus tissue, TEER)
Protocol: Approximately 1 μg of the entire isolated RNA was used to prepare each RNA sequencing library. RNA libraries were prepared using the TruSeq Stranded mRNA library preparation kit (Illumina). Most sequencing data were obtained using a NextSeq500 sequencer (Illumina) (2×75 bp, ˜ 30-40 million reads per sample) and some sequencing was performed using a HiSeq sequencer (Illumina) (2×125 bp, ˜ 25-30 million reads per sample). Transcript counts were obtained using the RNA Express application (RNA-Seq reads aligned with the STAR aligner) on the Illumina BaseSpace website.
Pearson correlation coefficients were determined in Microsoft Excel using the Pearson function comparing the transcript count correlation for all genes between two data sets.
On day 2, fresh W2.5ENRY was added to the cultures, and was replaced on day 4. Confluence of the culture was assessed by measuring the TEER. […]
Therefore, global gene expression by RNA sequencing was obtained for 36 culture conditions, taken 4, 6, and 8 days after seeding the cultures, and compared with the gene expression profiles of mouse jejunal villi and crypts. To simplify analysis and to account for changes in global gene expression rather than relying on a handful of marker genes, the Pearson correlation coefficient (PCC) was calculated for the relationship between the gene expression profiles of cultured cells and of mouse jejunal villus cells. […]

O=C(NCc1ccccc1)c1csc(Nc2ccncn2)n1 [thiazovivin]
TEER of human colonic cultures [1]: higher TEER values | secretory cell differentiation [1]: some suppression of secretory cell differentiation

[O]=[V]([O-])([O-])[O-] [vanadate]
block of K^+ absorption ([2]; 200 μM vanadate, mouse distal colonic cultures): block K^+ absorption completely | Inhibition of K^+ absorption normalized to the mean value of vanadate controls (mean±SD) ([2]; vanadate controls, 200 μM, value of 1 = inhibition equivalent to vanadate): 1.00±0.15

B1: BMP 4: mouse BMP-4 (Peprotech), bone morphogenetic protein used as differentiation promoting factor (protein, UniProt P21275 293-408, looked up)
Bone morphogenetic protein 4: SPKHHPQRSRKKNKNCRRHSLYVDFSDVGWNDWIVAPPGYQAFYCHGDCPFPLADHLNSTNHAIVQTLVNSVNSSIPKACCVPTELSAISMLYLDEYDKVVLKNYQEMVVEGCGCR
correlation of gene expression of cultures with tissues in the jejunum and ileum (PCC) ([3]; 300 ng/mL, dose titration of individual BMPs): strong correlations of gene expression | effectiveness at differentiating mouse duodenal, jejunal, and ileal cultures ([3]; compared with the BMP mixture (BMP 2, 4, and 7)): as effective as the BMP mixture
